System: patient-derived mantle cell lymphoma (MCL) cells (DFBL-96069)
Experiment: Patient-derived xenograft MCL mouse model
Type: in vivo
Settings: NSG mice grafted with MCL cells, IP, QD, 50 mg/kg, two weeks; FIG. 5
Method: NSG Mice were grafted with patient-derived mantle cell lymphoma (MCL) cells (DFBL-96069). Once burden of disease reached ˜2%, treatment began with indicated compounds: vehicle (IP, BID), Compound I-1 (IP, QD, 50 mg/kg), lenalidomide (IP, QD, 50 mg/kg), and ibrutinib (PO, QD, 30 mg/kg). Mice were treated for two weeks and 4-6 hours after the last dose, peripheral blood was taken and quantified for disease burden via flow cytometry.

## Cc1c(NC(=O)c2ccc(C(C)(C)C)cc2)cccc1-c1cn(C)c(=O)c(Nc2ccc(C(=O)N3CCN(CCCCCCNC(=O)CNc4cccc5c4C(=O)N(C4CCC(=O)NC4=O)C5=O)CC3)cc2)n1 (stereo not shown) [II-1]
  Efficacy (disease burden in peripheral blood via flow cytometry): showed efficacy

— patent publication US11712458B2, “Degradation of Bruton's tyrosine kinase (BTK) by conjugation of BTK inhibitors with E3 ligase ligand and methods of use” (DANA-FARBER CANCER INSTITUTE, INC., priority 2018, dated 2023)
